Here are results for 1 compound from patent US10092620B2, “Uses of cyclic peptides for treating and preventing atherosclerosis” (THE SCRIPPS RESEARCH INSTITUTE, priority 2013, dated 2018).

One assay has as its system plasma HDL. In words: in vivo plasma HDL remodeling after intraperitoneal injection (Western blotting for mouse apoA-I). The note with it: male BALB/c mice (n=3), i.p. 20 mg/kg; FIG. 3a; 20 mg/kg. The method, then: To ascertain if the cyclic D,L-α-peptides function in vivo as modulators of HDL, we administered 1 to mice (BALB/c, n=3) via intraperitoneal injection (i.p.) at a dose of 20 mg/kg. After various times, blood was drawn and the plasma was analyzed by Western blotting to determine the levels of the HDL subpopulations.
In vivo plasma remodeling: Cyclic peptide c[wLwReQeR], 1, was dissolved in 10% sucrose, and sterile filtered through a 0.22-μm syringe filter before injection. Mice were fasted beginning 12 h before dosing, and continued the fast until after the 8-h time point blood draw was completed. Groups of three mice received a 20 mg/kg dose of the cyclic peptide via intraperitoneal injection (0.3 mL). Blood was drawn (30-60 μL) from the retro-orbital sinus into a heparinized capillary tube before dosing (0 min) and at different intervals from 30 min to 8 h after dosing. Plasma was isolated immediately from the whole blood by centrifugation at 5000 rpm for 10 min at 4° C., after which 10 μL of plasma were mixed with 90 μL of 50% sucrose, vortexed for 30 s, and stored at 4° C. until all time points had been collected (samples were stored from 0-8 h). Samples were then mixed with 20 μL of 6× native loading buffer (125 mM tris, pH 6.8, 0.02% bromophenol, 20% glycerol). 6 μL of these samples were loaded onto a 4-20% polyacrylamide gel. Gels were run at constant 80 V at 4° C. for 14 h using a Laemli buffer system (25 mM tris, 192 mM glycine, pH 8.3). Gels were then blotted onto nitrocellulose membranes (0.45 μm, Bio-Rad) at constant 30 V at 4° C. for 2 h using the Laemli buffer (no methanol). The membrane was blocked with 5% non-fat dry milk (NFDM) in TBST (20 mM tris, 150 mM NaCl, pH 7.6, 0.1% Tween-20) for 1 h at 23° C., and then washed once for 10 min with TBST. […]
In vivo plasma HDL remodeling activities of some of the peptides were also analyzed. […] Results shown in the figure were determined by Western blotting for mouse apoA-I.

The subject of another assay is LDLr-null mice. In words: plasma lipoprotein and lipoprotein cholesterol profiles (FPLC of pooled plasma). Format: in vivo, mouse. The following applies: 2 weeks oral ~25 mg/kg/day. On the procedure: Effect of cyclic peptides on plasma lipoprotein and lipoprotein cholesterol profiles: Pooled plasma (240 μL total, 30 μL from each, n=8 mice per group) from the two-week blood draw was used for fast protein liquid chromatography (FPLC) analysis. Lipoproteins were separated by using 3 Superdex 200 10/30 columns connected in series (GE Healthcare). The plasma was centrifuged at 11,000 rpm for 10 min at room temperature to remove particulates (floating material was gently mixed into liquid before removing the supernatant for FPLC injection). 200 μL of the pooled plasma was injected on the system eluted with 10 mM tris-HCl buffer, pH 7.4, containing 1 mM EDTA and 150 mM NaCl; a flow rate of 0.5 ml/min and fraction size of 0.5 mL were used. Total cholesterol in the FPLC fractions was measured using the Amplex® red cholesterol assay kit (No. A12216, Life Technologies) according to the manufacturer's instructions. 20 μL of selected HDL fractions (as indicated in FIG. 6) were mixed with 4 μL of 6× native loading buffer (375 mM tris, pH 6.8, 0.06% bromophenol, 60% glycerol), out of which 20 μL was applied to non-denaturing gel electrophoresis and then immunoblotted for mouse apoA-I as described above.

The mark [1] stands for this setting: listed as c[wLwReQeR], 25 mg/kg/day.

Entries after “also recorded” stand apart in the source; their conditions may differ. Non-standard residues stand in square brackets, D forms with d. Residues, ends and D or L forms follow the SMILES beside them.

With `CC(C)C[C@@H]1NC(=O)[C@@H](Cc2c[nH]c3ccccc23)NC(=O)[C@H](CCCNC(=N)N)NC(=O)[C@@H](CCC(=O)O)NC(=O)[C@H](CCC(N)=O)NC(=O)[C@@H](CCC(=O)O)NC(=O)[C@H](CCCNC(=N)N)NC(=O)[C@@H](Cc2c[nH]c3ccccc23)NC1=O` [SEQ ID NO:1, c[wLwReQeR]] (cyclo([dW]L[dW]R[dE]Q[dE]R)), the “level of lipid-poor HDL in plasma” value in the assay with plasma HDL is listed as “marked increase in the amount of lipid-poor HDL for up to 8 h; also recorded: increased the level of lipid-poor HDL”. For the same compound, in the assay with LDLr-null mice (listed as 1, 25 mg/kg/day), the “HDL particle size (FPLC lipoprotein profile)” value is recorded as “remodeled in favor of the smaller HDL particle sizes”; the “VLDL and LDL levels (FPLC lipoprotein profile)” value was “reduced levels of VLDL and LDL”. In addition, in the assay with LDLr-null mice (setting [1]), the “HDL particle size (FPLC lipoprotein profile)” value is “modest shift to smaller (later eluting) particles”; the “VLDL and LDL levels (FPLC lipoprotein profile)” value was “decreases in the VLDL and LDL levels”. The “HDL levels (FPLC lipoprotein profile)” value with LDLr-null mice (vs vehicle) is given as “comparable for both groups”.
